Assay results: US12589086B2, “Compositions and methods for the treatment of primary biliary cholangitis” (Genfit, priority 2020, dated 2026)

Tested on: patients with PBC
Test: phase II study of elafibranor for the treatment of PBC (serum ALP, 12 weeks)
Format: in vivo, human
Conditions: for treatment effect estimate vs placebo, relative change in serum ALP (supportive analysis): ANCOVA with baseline ALP as covariate; for treatment effect estimate vs placebo, relative change in serum ALP (primary efficacy analysis): non-parametric randomization-based ANCOVA with baseline ALP as covariate, p<0.001; for mean relative change (%) from baseline to Endpoint in serum ALP: placebo 3.2%
Method: Elafibranor (2-(2,6-dimethyl-4-{3 [4-(methylsulfanyl)phenyl]-3-oxopropen-1-yl}phenoxy)-2-methylpropanoic acid) is a drug currently tested in a pivotal phase III study for the treatment of PBC. Elafibranor was also evaluated in a phase II study for the treatment of PBC. […] Elafibranor (2-(2,6-dimethyl-4-{3-[4-(methylsulfanyl)phenyl]-3-oxopropen-1-yl}phenoxy)-2-methylpropanoic acid) was supplied as 80 mg white to offwhite round coated tablets with no printed inscription. A placebo tablet (of the same size as the corresponding active tablet) to match elafibranor 80 mg was provided as a white to off-white round coated tablet with no printed inscription. The placebo tablet contained the same excipients as the active formulation as well as lactose monohydrate (which was used in place of the active ingredient). […] The treatment effect estimate was −52.0% (95% Cl [−62.5; −41.5]) for the elafibranor 80 mg treatment group and −43.9% (95% Cl [−55.7; −32.1]) for the elafibranor 120 mg treatment group (FIG. 1). The primary efficacy supportive analysis conducted using an ANCOVA with baseline ALP as a covariate was consistent with the primary efficacy analysis. The treatment effect estimate was −51.4% (95% Cl [−63.3; −39.5]) for the elafibranor 80 mg treatment group and −43.9% (95% Cl [−55.8; −31.9]) for the elafibranor 120 mg treatment group (FIG. 1).

CSc1ccc(C(=O)C=Cc2cc(C)c(OC(C)(C)C(=O)O)c(C)c2)cc1 [elafibranor, 2-(2,6-dimethyl-4-{3-[4-(methylsulfanyl)phenyl]-3-oxopropen-1-yl}phenoxy)-2-methylpropanoic acid]
absolute change from baseline in serum ALP vs placebo at Endpoint (80 mg (p<0.001) and 120 mg treatment groups): statistically significantly different from placebo
relative change from baseline in serum ALP vs placebo at Endpoint (80 mg and 120 mg treatment groups): statistically significantly different from placebo
mean ALP values from baseline through Week 12 (80 mg and 120 mg treatment groups, FIG. 2): declining mean ALP values
mean relative changes (%) in ALP values from baseline through Week 12 (80 mg and 120 mg treatment groups, beginning at Week 2 up through Week 12, FIG. 3): decrease in ALP values over time
treatment effect estimate vs placebo, relative change in serum ALP (supportive analysis) (80 mg, 95% CI [−63.3, −39.5]): −51.4%
treatment effect estimate vs placebo, relative change in serum ALP (primary efficacy analysis) (80 mg, 95% CI [−62.5, −41.5]): −52.0%
treatment effect estimate vs placebo, relative change in serum ALP (supportive analysis) (120 mg, 95% CI [−55.8, −31.9]): −43.9%
treatment effect estimate vs placebo, relative change in serum ALP (primary efficacy analysis) (120 mg, 95% CI [−55.7, −32.1]): −43.9%
reduction in plasma ALP levels from baseline compared to placebo (PBC patients): consistent, statistically significant reduction
mean relative change (%) from baseline to Endpoint in serum ALP (elafibranor 80 mg treatment group, PBC patients): −48.3%
mean relative change (%) from baseline to Endpoint in serum ALP (elafibranor 120 mg treatment group, PBC patients): −40.6%
safety and tolerability in patients (in vivo): safe and well-tolerated
